Laboratory results taken from ChEMBL document CHEMBL3414502, “Identification of protein kinase CK2 inhibitors using solvent dipole ordering virtual screening” (Eur J Med Chem, 2015).
Active and inactive are the calls of the source. The rule behind the calls is not given here.

What was measured:
Casein kinase II = Casein kinase II (Homo sapiens, UniProt P19784+P67870+P68400); assay: Inhibition of CK2 kinase (unknown origin) using RRRDDDSDDD as substrate after 10 mins by topcount analysis in presence of [gamma-32P]ATP and 90 uM ATP; assay type: protein-complex assay
[1] = target: Casein kinase II (Homo sapiens) (UniProt P67870+P68400+P19784); assay: Competitive inhibition of CK2 kinase (unknown origin) by Lineweaver-Burk plot analysis in presence of ATP; assay type: protein-complex assay

O=C1OC(c2sc3ccccc3c2Cl)=N/C1=C/c1ccc(C(=O)O)cc1
IC50 (Casein kinase II): 6 µM

COc1ccc(-c2nc3c(sc4nc(C(F)F)cc(C)c43)c(=O)[nH]2)cc1Cn1cc([N+](=O)[O-])cn1
IC50 (Casein kinase II): 7.7 µM | competitive inhibition (qualitative) [1]: Active

O=C(COC(=O)c1cc(Br)c(Br)s1)Nc1ccc2[nH]c(=O)[nH]c2c1
IC50 (Casein kinase II): 15.2 µM

Cc1cc(Br)c(N2C(=O)NC(=O)C(/C=N/c3ccc(C(=O)O)c(O)c3)C2=O)cc1C (stereo unspecified)
IC50 (Casein kinase II): 28.6 µM

O=c1cc(-c2ccc(O)cc2)oc2c1ccc1ccccc12
IC50 (Casein kinase II): 9.7 µM | competitive inhibition (qualitative) [1]: Active

CCOc1ccc(C2=N/C(=C/c3ccc(C(=O)O)cc3)C(=O)O2)cc1
IC50 (Casein kinase II): 43 µM

O=c1oc2ccc([N+](=O)[O-])cc2cc1-c1csc(Nc2ccccc2)n1
IC50 (Casein kinase II): 8.6 µM | competitive inhibition (qualitative) [1]: Active

COc1cccc(NC(=O)Nc2nnc(-c3ccc([N+](=O)[O-])cc3)s2)c1
IC50 (Casein kinase II): 7.6 µM | competitive inhibition (qualitative) [1]: Active

COc1cc(/C=C2/C(=O)NN(c3ccc(C)c(Cl)c3)C2=O)ccc1OCC(=O)O
IC50 (Casein kinase II): 28.9 µM

Cc1nn(C)cc1-c1cc(-c2nnc(Nc3ccn(Cc4ccccc4Cl)n3)s2)no1
IC50 (Casein kinase II): 3.7 µM | competitive inhibition (qualitative) [1]: Active

O=C1OC(c2ccc(-c3ccccc3)cc2)=N/C1=C/c1ccc(C(=O)O)cc1
IC50 (Casein kinase II): 13.9 µM

O=c1[nH]nc(-c2ccco2)c2cn(-c3cccc([N+](=O)[O-])c3)nc12
IC50 (Casein kinase II): 46.3 µM

CCC(=O)Nc1nnc(-c2ccc([N+](=O)[O-])cc2)s1
IC50 (Casein kinase II): 27.9 µM

Nc1nnc(-c2ccc(C(=O)O)cc2)s1
IC50 (Casein kinase II): 27.4 µM

Nc1nc2ccc(NC(=S)NC(=O)c3cccs3)cc2s1
IC50 (Casein kinase II): 25.1 µM

O=c1[nH]n2c(=O)c3c([nH]c2c1/N=N/c1ccccc1Cl)CCC3
IC50 (Casein kinase II): 3.8 µM | competitive inhibition (qualitative) [1]: Active

O=C(O)COc1ccc2c(c1)O/C(=C\c1ccco1)C2=O
IC50 (Casein kinase II): 11 µM

CC(C)(C)c1ccc(C2=N/C(=C/c3ccc(C(=O)O)cc3)C(=O)O2)cc1
IC50 (Casein kinase II): 13.2 µM

O=c1[nH]c(-c2ccc(OCc3ccccc3)cc2)nc2c1cnn2-c1ccccc1
IC50 (Casein kinase II): 11.1 µM

COc1ccc(-c2nc(C(N)=O)c3[nH]c(=O)n(-c4ccc(OC)c(OC)c4)c3n2)cc1
IC50 (Casein kinase II): 50 µM

COc1ccc(/C=C2\Oc3cc(OCC(=O)O)ccc3C2=O)cc1OC
IC50 (Casein kinase II): 6 µM | competitive inhibition (qualitative) [1]: Active

O=C(COC(=O)c1c[nH]c2ccccc12)Nc1ccc2[nH]c(=O)[nH]c2c1
IC50 (Casein kinase II): 28.5 µM

NC(=O)c1nc(-c2ccncc2)nc2c1[nH]c(=O)n2-c1ccc2c(c1)OCO2
IC50 (Casein kinase II): 19.6 µM

CCOc1cc(-c2nc3c(cnn3-c3ccccc3)c(=O)[nH]2)ccc1O
IC50 (Casein kinase II): 39.9 µM
